Source: US11685741B2, “Fluorescent probes” (University of Massachusetts, priority 2017, dated 2023)
Values joined by “and” are separate entries in the source; they are usually repeats but may differ in a detail not shown here. Equal values may be shown once.

Key:
[1] = test system: zebrafish; experiment: Zebrafish confocal imaging of free Fe2+; assay type: in vivo
Experimental: Embryos were collected from natural spawning and raised up in embryo medium (M. Santra, et al. Chem. Commun., 2009, 10, 2115). Zebrafish mutant strain Casper was utilized because it lacks pigment, allowing better visualization (J. A. Lister, et al., Development, 1999, 126, 3757). Zebrafish embryos at 6 days post fertilization (dpf) were incubated with 10 μM NIRh-Fret in embryo media for 1 h at 28° C. In addition, iron (II) loaded zebrafish (100 μM Fe (NH4)2(SO4)2 for 8 hours incubation) were incubated with 10 μM NIRh-Fret in embryo media for 1 h at 28° C. The treated zebrafish were imaged by a LSM710 confocal microscope.
The ability of NIRh-Fret to detect free Fe^2+ in zebrafish was further investigated using confocal microscopy. […] For Fe^2+ replete conditions, live zebrafish were incubated with 100 μM of ferrous ammonium sulfate (Fe (NH4)2(SO4)2) at 28° C. for 8 h followed by washing with E3 medium to remove excess Fe^2+ and then 10 μM of NIRh-Fret was added to the culture media and was incubated at 28° C. for 30 min.
In addition, the red-colored region was observed as a well-localized red round spot, being the intestine region of the 6-days-old zebrafish.

[2] = Metal ion sensing: UV-vis and fluorescence response to Fe3+ and other metal ions
Experimental: The spectroscopic properties of Rh-PK and its interactions with various metal ions were evaluated in acetonitrile (ACN)/Tris-HCl buffer (10 mM, pH 7.3, v/v, 3:1). […] The changes in UV-Vis spectra after the addition of various ions are shown in FIG. 2, which is an absorbance spectrum of 100 μM sensor with various metal ions (100 μM for Ni^+2, Cu^+, Cu^+2, Zn^+2, Pb, Fe^+2, Fe^+3, Cr^+3, Hg^+2, Mn^+2, Ag^+, and Co^+2; 200 μM for K^+, Na^+, Ca^2+ and Mg^2+) in the ACN/Tris buffer (10 mM, pH 7.3, v/v 3:1).
When Fe^3+ was added into the solution of Rh-PK, a significant enhancement of fluorescence (>12-fold with 1.0 equiv of Fe^3+) was observed.
The interferences from the other metal ions with Rh-PK in its response to Fe^3+ was examined. […] Each of the 12 metal ions was pre-incubated with Rh-PK before 1 equiv. of Fe^3+ was added, the fluorescence response was then measured.
The stock solution of sensor and metal ions were prepared at the concentration of 1 mM. M. P. Walkees, Mutat. Res., 2003, 533, 107; M. Waisberg, et al., Toxicology, 2003, 192, 95.
The UV-vis. and fluorescence spectra of RhHPA to various possible interfering metal ions and its selectivity for Fe^3+ were examined. See FIG. 6, which is a plot of absorbance dependent on the concentration of Fe^3+ in the range from 0 to 2 equivalents in ACN/Tris-HCl buffer (10 mM, pH 7.3, v/v 2:1); FIG. 7, which is a Job's plot between Fe^3+ and RhHPA, indicating the 1:1 binding mode for sensor and iron(III). […] Addition of Na^+, K^+, Ca^2+, Mg^2+, Cr^3+, […], Hg^2+, Cu^2+, Pb^2+, Zn^2+, Fe^2+, Co^2+, Ni^2+, and Ag^+ exerted little or no effect on the emission of RhHPA, while remarkable fluorescence enhancement was detected upon the addition of Fe^3+ by excitation of the rhodamine fluorophore at 535 nm.
Experiments of iron(III) with other metal ions were investigated by means of the fluorescence response of RhHPA toward Fe^3+ in the presence of various other metal ions such as Na^+, K^+, Ca^2+, Mg^2+, Cr^3+, Hg^2+, Cu^2+, Pb^2+, Zn^2+, Fe^2+, Co^2+, Ni^2+, Cd^2+, and Ag^+. […] for Fe^3+ had no changes with addition of other metal ions. Cu(II) and Zn(II) increased the fluorescence intensity slightly.

[3] = Rh-PK + Fe^3+, ACN/Tris-HCl buffer pH 7.3 v/v 3:1

Compound | fluorescence of Fe^2+-treated zebrafish versus unsupplemented ([1]; 100 μM ferrous ammonium sulfate 8 h, then 10 μM NIRh-Fret 30 min) | fluorescence of zebrafish with sensor only ([1]; 6-days-old zebrafish, 10 μM NIRh-Fret) | Φ [2, 3] | ε of absorption peak at 555 nm [2, 3] [M⁻¹ cm⁻¹] | increase in fluorescence emission intensity ([2]; one equivalent Fe^3+, ACN/Tris-HCl buffer pH 7.3)
CCN(CC)c1ccc2c(c1)OC1=C(CCC/C1=C\C=C1\N(C)c3ccccc3C1(C)C)C21c2ccccc2C(=O)N1/N=C\C=C\c1ccc(N(C)C)cc1 (centres unmarked) [NIRh-Fret, (E)-6′-(diethylamino)-2-(((1Z,2E)-3-(4-(dimethylamino)phenyl)allylidene)amino)-4′-(2-((E)-1,3,3-trimethylindolin-2-ylidene)ethylidene)-1′,2′,3′,4′-tetrahydrospiro[isoindoline-1,9′-xanthen]-3-one] | significant increase in fluorescent signals | weak fluorescence |  |  | 
CCN(CC)c1ccc2c(c1)Oc1cc(N(CC)CC)ccc1C21c2ccccc2C(=O)N1CC/N=C(\C)c1cccc(C(C)=O)n1 [Rh-PK, (E)-2-(2-((1-(6-acetylpyridin-2-yl)ethylidene)amino)ethyl)-3′,6′-bis(diethylamino)spiro[isoindoline-1,9′-xanthen]-3-one] |  |  | 0.173 | 3200 | ~12 fold and > 12 fold
